Patent US20230203043A1, “NOVEL IMIDAZOPYRAZINE DERIVATIVES” (Hoffmann-La Roche Inc., priority 2020, published 2023)
Where a name gives a salt, the structure may show the parent alone.

tested on: Acinetobacter baumannii ATCC17961; assay: Antimicrobial susceptibility testing: 90% growth inhibitory concentration (IC90) determination in Iso-Sensitest broth, OD600 growth; format: cell-based; details: Acinetobacter baumannii, ATCC17961, 16 h, read-out: A. baumannii ATCC 17961 IC90 (uM), strain ATCC 17961, OD600 growth over 16 h
Procedure, shortened: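 OD600 read every 20 min for 16 h at 35±2° C; inhibition taken in log phase to derive IC90. Twofold, 10-point dilutions (e.g. 50–0.097 μM final), inoculum ~5×10^(5) CFU/ml.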

Structure (SMILES)	IC90 [µM]
Cc1cc(Nc2nccn3c(-c4cn(CC#N)nc4C(F)(F)F)cnc23)cc(F)c1C(=O)N[C@H](C)CNC(=O)C1CCNCC1 [Example 741, (R)-N-(2-(4-((3-(1-(cyanomethyl)-3-(trifluoromethyl)-1H-pyrazol-4-yl)imidazo[1,2-a]pyrazin-8-yl)amino)-2-fluoro-6-methylbenzamido)propyl)piperidine-4-carboxamide formate]	0.53
Cc1cc(Nc2nccn3c(-c4cn(CC#N)nc4C(F)(F)F)cnc23)ccc1C(=O)NCC(=O)NC1CC(N)C1 (stereo not drawn) [Example 749, N-[2-[(3-aminocyclobutyl)amino]-2-oxo-ethyl]-4-[[3-[1-(cyanomethyl)-3-(trifluoromethyl)pyrazol-4-yl]imidazo[1,2-a]pyrazin-8-yl]amino]-2-methyl-benzamide formate]	0.619
Cc1cc(Nc2nccn3c(-c4cn(CC#N)nc4C(F)(F)F)cnc23)ccc1C(=O)NCC(=O)N[C@@H]1CCNC1 [Example 750, 4-[[3-[1-(cyanomethyl)-3-(trifluoromethyl)pyrazol-4-yl]imidazo[1,2-a]pyrazin-8-yl]amino]-2-methyl-N-[2-oxo-2-[[(3R)-pyrrolidin-3-yl]amino]ethyl]benzamide formate]	0.625
Cc1cc(Nc2nccn3c(-c4cn(CC#N)nc4C(F)(F)F)cnc23)ccc1C(=O)NCC(=O)N1CC(N)C1 [Example 751, N-[2-(3-aminoazetidin-1-yl)-2-oxo-ethyl]-4-[[3-[1-(cyanomethyl)-3-(trifluoromethyl)pyrazol-4-yl]imidazo[1,2-a]pyrazin-8-yl]amino]-2-methyl-benzamide formate]	0.627
Cc1cc(Nc2nccn3c(-c4cn(CC#N)nc4C(F)(F)F)cnc23)ccc1C(=O)NCC(=O)NCCN(C)C [Example 752, 4-[[3-[1-(cyanomethyl)-3-(trifluoromethyl)pyrazol-4-yl]imidazo[1,2-a]pyrazin-8-yl]amino]-N-[2-[2-(dimethylamino)ethylamino]-2-oxo-ethyl]-2-methyl-benzamide formate]	0.636
CCc1cc(Nc2nccn3c(-c4c[nH]nc4C(F)(F)F)cnc23)ccc1C(=O)NCC(=O)N1CCC(N)CC1 [Example 756, N-[2-(4-amino-1-piperidyl)-2-oxo-ethyl]-2-ethyl-4-[[3-[3-(trifluoromethyl)-1H-pyrazol-4-yl]imidazo[1,2-a]pyrazin-8-yl]amino]benzamide formate]	0.679
CCc1cc(Nc2nccn3c(-c4cn(CC#N)nc4C(F)(F)F)cnc23)ccc1C(=O)NCC(=O)N[C@@H]1CCNC1 [Example 757, 4-[[3-[1-(cyanomethyl)-3-(trifluoromethyl)pyrazol-4-yl]imidazo[1,2-a]pyrazin-8-yl]amino]-2-ethyl-N-[2-oxo-2-[[(3R)-pyrrolidin-3-yl]amino]ethyl]benzamide formate]	0.689
CCc1cc(Nc2nccn3c(-c4cn(CC#N)nc4C(F)(F)F)cnc23)ccc1C(=O)NCC(=O)N[C@H]1CCNC1 [Example 758, 4-[[3-[1-(cyanomethyl)-3-(trifluoromethyl)pyrazol-4-yl]imidazo[1,2-a]pyrazin-8-yl]amino]-2-ethyl-N-[2-oxo-2-[[(3S)-pyrrolidin-3-yl]amino]ethyl]benzamide formate]	0.693

same assay, conditions: Acinetobacter baumannii, ATCC17961, 16 h, strain ATCC 17961, OD600 growth over 16 h, read-out: A. baumannii ATCC 17961 IC90

Structure (SMILES)	IC90 [µM]
CCc1cc(Nc2nccn3c(-c4cn(CC(F)F)nc4C(F)F)cnc23)ccc1C(=O)N1CCN(C(=O)C2CCNCC2)CC1 [Example 742, (4-(4-((3-(1-(2,2-difluoroethyl)-3-(difluoromethyl)-1H-pyrazol-4-yl)imidazo[1,2-a]pyrazin-8-yl)amino)-2-ethylbenzoyl)piperazin-1-yl)(piperidin-4-yl) methanone]	0.53
CCc1cc(Nc2nccn3c(-c4cn(CC(F)F)nc4C(F)F)cnc23)ccc1C(=O)N1CCN(C(=O)[C@H]2C[C@H](N)C2)CC1 [Example 743, (4-((1r,3r)-3-aminocyclobutane-1-carbonyl)piperazin-1-yl)(4-((3-(1-(2,2-difluoroethyl)-3-(difluoromethyl)-1H-pyrazol-4-yl)imidazo[1,2-a]pyrazin-8-yl)amino)-2-ethylphenyl) methanone]	0.532
Cc1cc(Nc2nccn3c(-c4cn(CC(F)F)nc4C(F)(F)F)cnc23)cc(F)c1C(=O)N[C@H](C)CNC(=O)[C@@H]1C[C@@H](O)CN1 [Example 744, (2S,4R)-N-((R)-2-(4-((3-(1-(2,2-difluoroethyl)-3-(trifluoromethyl)-1H-pyrazol-4-yl)imidazo[1,2-a]pyrazin-8-yl)amino)-2-fluoro-6-methylbenzamido)propyl)-4-hydroxypyrrolidine-2-carboxamide]	0.557
CCc1cc(Nc2nccn3c(-c4cn(C(C)C#N)nc4C(F)(F)F)cnc23)ccc1C(=O)NCCOCCN1CCOCC1 (stereo not drawn) [Example 745, 4-((3-(1-(1-cyanoethyl)-3-(trifluoromethyl)-1H-pyrazol-4-yl)imidazo[1,2-a]pyrazin-8-yl)amino)-2-ethyl-N-(2-(2-morpholinoethoxy)ethyl) benzamide formate]	0.569
Cc1cc(Nc2nccn3c(-c4cn(CC#N)nc4C(F)(F)F)cnc23)ccc1C(=O)N[C@H](C)C(=O)N[C@@H]1CCNC1 [Example 746, 4-[[3-[1-(cyanomethyl)-3-(trifluoromethyl)pyrazol-4-yl]imidazo[1,2-a]pyrazin-8-yl]amino]-2-methyl-N-[(1R)-1-methyl-2-oxo-2-[[(3R)-pyrrolidin-3-yl]amino]ethyl] benzamide formate]	0.581
C#CCn1cc(-c2cnc3c(Nc4ccc(C(=O)N5CCN(C(=O)[C@@H](C)N)CC5)c(CC)c4)nccn23)c(C(F)F)n1 [Example 747, (R)-2-amino-1-(4-(4-((3-(3-(difluoromethyl)-1-(prop-2-yn-1-yl)-1H-pyrazol-4-yl)imidazo[1,2-a]pyrazin-8-yl)amino)-2-ethylbenzoyl)piperazin-1-yl)propan-1-one]	0.598
CCc1cc(Nc2nccn3c(-c4c[nH]nc4C(F)(F)F)cnc23)ccc1C(=O)NCCCNC(=O)[C@@H](C)NC(=O)C(F)(F)F [Example 748, (R)-2-ethyl-N-(3-(2-(2,2,2-trifluoroacetamido)propanamido)propyl)-4-((3-(3-(trifluoromethyl)-1H-pyrazol-4-yl)imidazo[1,2-a]pyrazin-8-yl)amino) benzamide]	0.608
CCc1cc(Nc2nccn3c(-c4c[nH]nc4C(F)(F)F)cnc23)ccc1C(=O)NCC(=O)N1CCNCC1 [Example 753, 2-ethyl-N-(2-oxo-2-piperazin-1-yl-ethyl)-4-[[3-[3-(trifluoromethyl)-1H-pyrazol-4-yl]imidazo[1,2-a]pyrazin-8-yl]amino] benzamide formate]	0.659
CCc1cc(Nc2nccn3c(-c4cn(CC#N)nc4C(F)(F)F)cnc23)ccc1C(=O)NCCCNC(=O)[C@@H]1C[C@@H](O)CN1 [Example 754, (2S,4R)-N-(3-(4-((3-(1-(cyanomethyl)-3-(trifluoromethyl)-1H-pyrazol-4-yl)imidazo[1,2-a]pyrazin-8-yl)amino)-2-ethylbenzamido)propyl)-4-hydroxypyrrolidine-2-carboxamide]	0.671
C#CCn1cc(-c2cnc3c(Nc4ccc(C(=O)N5CCN(C(=O)C6(O)CCNCC6)CC5)c(CC)c4)nccn23)c(C(F)F)n1 [Example 755, (4-(4-((3-(3-(difluoromethyl)-1-(prop-2-yn-1-yl)-1H-pyrazol-4-yl)imidazo[1,2-a]pyrazin-8-yl)amino)-2-ethylbenzoyl)piperazin-1-yl)(4-hydroxypiperidin-4-yl) methanone]	0.678
